Measurements: US20230346827A1 (priority 2020, published 2023)

Test system: rats subjected to sTBI
Test: sTBI rats, LMW-DS 1, 5, 15 mg/kg s.c. 30 min post-TBI: HPLC of brain energy metabolites, antioxidants, oxidative/nitrosative stress biomarkers (Example 4)
Type: in vivo, rat
Conditions: 1 mg/kg
Procedure: Male Wistar rats (n=160) of 300-350 g body weight were used in this study. They were fed with standard laboratory diet and water ad libitum in a controlled environment.
As the accepted anesthetic mixture, animals received 35 mg/kg b.w. ketamine and 0.25 mg/kg body weight midazolam by intramuscular injection. Diffuse sTBI was induced according to the “weight drop” impact acceleration model set up by Marmarou et al. J. Neurosurg. 1994, 80: 291-300. This model causes diffuse axonal injury and it is able to reproduce the physical and mechanical characteristics of the diffuse TBI in humans.
Severe TBI was induced by dropping a 450 g weight from 2 meters height onto the rat head protected by a helmet (metal disk previously fixed on the skull using dental cement) in order to uniformly distribute the mechanical force to the brain. Rats were placed prone on a bed of specific polyurethane foam inserted in a special container; this foam dissipates the major part of the potential energy (deriving from the mechanical forces) and prevents any rebound of the animal after the impact that could produce spinal damages.
After 2 or 7 days from TBI induction, rats were anesthetized again and then immediately sacrificed. These time points are coincident with the worst biochemical derangement (2 days) or, in the case of a mildly injured brain, with a full metabolic recovery (7 days).
The drug treatment consisted in a subcutaneous injection of 0.5 ml of LMW-DS (ILB®, Tikomed, Viken, Sweden, WO 2016/076780) and administered at 3 different concentrations (1, 5 and 15 mg/kg body weight), according to the schematic protocol described below. Sham-operated animals underwent the same procedure of anesthesia but TBI and were used as the control group.
Rats subjected to sTBI and receiving a single administration of LMW-DS after 30 minutes post-TBI, with sacrifice at 2 days post-TBI. Animals were divided in the following subgroups: • 1. 12 animals subjected to sTBI and treated with 1 mg/kg b.w. LMW-DS • 2. 12 animals subjected to sTBI and treated with 5 mg/kg b.w. LMW-DS • 3. 12 animals subjected to sTBI and treated with 15 mg/kg b.w. LMW-DS
Rats subjected to sTBI and receiving a single administration of LMW-DS after 30 minutes post-TBI, with sacrifice at 7 days post-TBI. Animals were divided in the following subgroups: • 1. 12 animals subjected to sTBI and treated with 1 mg/kg b.w. LMW-DS • 2. 12 animals subjected to sTBI and treated with 5 mg/kg b.w. LMW-DS • 3. 12 animals subjected to sTBI and treated with 15 mg/kg b.w. LMW-DS
Rats (n = 12) subjected to sTBI and receiving repeated administrations of the maximal dose of LMW-DS (15 mg/kg b.w.) after 30 minutes, 3 days and 5 days post-TBI, with sacrifice at 7 days post-TBI. Four additional rats were used for the histo-morphological studies. Total rats in this group: n=16
To minimize metabolite loss, an in vivo craniectomy was performed in all animals during anesthesia. The rat skull was carefully removed, the brain was exposed, sharply cut along the sagittal fissure and the two hemispheres were separated. The hemispheres dedicated to biochemical analyses were freeze-clamped by aluminum tongues pre-cooled in liquid nitrogen and then immersed in liquid nitrogen. The freeze-clamping procedure was introduced to accelerate freezing of the tissue, thus minimizing potential metabolite loss.
Tissue homogenization for metabolite analyses was effected as described below. After the wet weight (w.w.) determination, the frozen hemispheres were placed into 7 ml of ice-cold, nitrogen-saturated, precipitating solution (1:10 w/v) composed by CH3CN + 10 mM KH2PO4, pH 7.40, (3:1; v:v), and the homogenization was performed using an Ultra-Turrax homogenizer set at 24,000 rpm/min (Janke & Kunkel, Staufen, Germany). […]

sodium salt of dextran sulfate [LMW-DS]
ADENOSINE (2 d post-sTBI): 68.91 ± 16.50 nmol/g w.w. | ADP (2 d post-sTBI): 333.90 ± 28.72 nmol/g w.w. | ADP-Ribose (2 d post-sTBI): 25.69 ± 5.16 nmol/g w.w. | AMP (2 d post-sTBI): 62.04 ± 7.46 nmol/g w.w. | ASCORBIC ACID (2 d post-sTBI): 2567.35 ± 147.76 nmol/g w.w. | ATP (2 d post-sTBI): 1696.96 ± 99.43 nmol/g w.w. | Acetyl-CoA (2 d post-sTBI): 27.74 ± 3.23 nmol/g w.w. | CDP choline (2 d post-sTBI): 8.23 ± 1.22 nmol/g w.w. | CMP (2 d post-sTBI): 29.39 ± 6.00 nmol/g w.w. | CREATININE (2 d post-sTBI): 17.66 ± 3.29 nmol/g w.w. | CTP (2 d post-sTBI): 33.01 ± 7.63 nmol/g w.w. | CYTIDINE (2 d post-sTBI): 13.79 ± 2.49 nmol/g w.w. | CYTOSINE (2 d post-sTBI): 13.47 ± 1.65 nmol/g w.w. | CoA-SH (2 d post-sTBI): 9.42 ± 1.04 nmol/g w.w. | GDP (2 d post-sTBI): 189.85 ± 26.23 nmol/g w.w. | GDP Glucose (2 d post-sTBI): 65.66 ± 41.61 nmol/g w.w. | GMP (2 d post-sTBI): 205.06 ± 25.74 nmol/g w.w. | GSH (2 d post-sTBI): 2337.06 ± 340.81 nmol/g w.w. | GTP (2 d post-sTBI): 169.98 ± 17.93 nmol/g w.w. | GUANINE (2 d post-sTBI): 1.62 ± 0.41 nmol/g w.w. | GUANOSINE (2 d post-sTBI): 16.46 ± 2.73 nmol/g w.w. | HYPOXANTHINE (2 d post-sTBI): 4.02 ± 0.66 nmol/g w.w. | IMP (2 d post-sTBI): 45.97 ± 8.65 nmol/g w.w. | INOSINE (2 d post-sTBI): 113.85 ± 14.84 nmol/g w.w. | MDA (2 d post-sTBI): 44.00 ± 7.17 nmol/g w.w. | Malonyl-CoA (2 d post-sTBI): 19.06 ± 4.04 nmol/g w.w. | NADH (2 d post-sTBI): 9.42 ± 1.38 nmol/g w.w. | NADPH (2 d post-sTBI): 13.07 ± 1.09 nmol/g w.w. | NADP^+ (2 d post-sTBI): 11.79 ± 2.70 nmol/g w.w. | NAD^+ (2 d post-sTBI): 325.87 ± 55.47 nmol/g w.w. | NO2 (2 d post-sTBI): 158.36 ± 19.08 nmol/g w.w. | NO3 (2 d post-sTBI): 99.16 ± 21.58 nmol/g w.w. | UDP (2 d post-sTBI): 83.06 ± 8.52 nmol/g w.w. | UDP-Gal (2 d post-sTBI): 118.50 ± 9.89 nmol/g w.w. | UDP-GalNac (2 d post-sTBI): 21.24 ± 3.13 nmol/g w.w. | UDP-Glc (2 d post-sTBI): 45.14 ± 6.68 nmol/g w.w. | UDP-GlcNac (2 d post-sTBI): 96.62 ± 8.80 nmol/g w.w. | UMP (2 d post-sTBI): 148.04 ± 20.45 nmol/g w.w. | URACIL (2 d post-sTBI): 17.18 ± 3.36 nmol/g w.w. | URIC ACID (2 d post-sTBI): 52.42 ± 10.75 nmol/g w.w. | URIDINE (2 d post-sTBI): 79.93 ± 14.07 nmol/g w.w. | UTP (2 d post-sTBI): 104.07 ± 16.34 nmol/g w.w. | XANTHINE (2 d post-sTBI): 13.79 ± 1.43 nmol/g w.w. | β-PSEUDOURIDINE (2 d post-sTBI): 11.64 ± 2.3 nmol/g w.w. | NAD^+/NADH (2 d post-sTBI, adimensional ratio): 33.91 ± 9.32 | ADENOSINE (7 d post-sTBI): 26.08 ± 19.31 nmol/g w.w. | ADP (7 d post-sTBI): 286.78 ± 38.19 nmol/g w.w. | ADP-Ribose (7 d post-sTBI): 7.95 ± 1.99 nmol/g w.w. | AMP (7 d post-sTBI): 43.13 ± 3.39 nmol/g w.w. | ASCORBIC ACID (7 d post-sTBI): 2177.22 ± 262.21 nmol/g w.w. | ATP (7 d post-sTBI): 1792.01 ± 144.16 nmol/g w.w. | Acetyl-CoA (7 d post-sTBI): 27.05 ± 4.61 nmol/g w.w. | CDP choline (7 d post-sTBI): 6.26 ± 2.01 nmol/g w.w. | CMP (7 d post-sTBI): 25.41 ± 10.81 nmol/g w.w. | CREATININE (7 d post-sTBI): 6.57 ± 1.16 nmol/g w.w. | CTP (7 d post-sTBI): 81.75 ± 31.55 nmol/g w.w. | CYTIDINE (7 d post-sTBI): 29.67 ± 10.44 nmol/g w.w. | CYTOSINE (7 d post-sTBI): 16.03 ± 3.44 nmol/g w.w. | CoA-SH (7 d post-sTBI): 38.50 ± 4.94 nmol/g w.w. | GDP (7 d post-sTBI): 121.72 ± 13.91 nmol/g w.w. | GDP Glucose (7 d post-sTBI): 112.22 ± 13.13 nmol/g w.w. | GMP (7 d post-sTBI): 113.06 ± 53.51 nmol/g w.w. | GSH (7 d post-sTBI): 1627.30 ± 214.51 nmol/g w.w. | GTP (7 d post-sTBI): 438.65 ± 39.88 nmol/g w.w. | GUANINE (7 d post-sTBI): 6.86 ± 2.92 nmol/g w.w. | GUANOSINE (7 d post-sTBI): 19.11 ± 3.98 nmol/g w.w. | HYPOXANTHINE (7 d post-sTBI): 16.97 ± 4.94 nmol/g w.w. | IMP (7 d post-sTBI): 80.16 ± 20.53 nmol/g w.w. | INOSINE (7 d post-sTBI): 124.27 ± 13.94 nmol/g w.w. | MDA (7 d post-sTBI): 32.98 ± 5.44 nmol/g w.w. | Malonyl-CoA (7 d post-sTBI): 5.43 ± 0.98 nmol/g w.w. | NADH (7 d post-sTBI): 8.20 ± 1.41 nmol/g w.w. | NADPH (7 d post-sTBI): 18.91 ± 4.39 nmol/g w.w. | NADP^+ (7 d post-sTBI): 39.94 ± 14.65 nmol/g w.w. | NAD^+ (7 d post-sTBI): 268.14 ± 37.97 nmol/g w.w. | NO2 (7 d post-sTBI): 93.04 ± 20.16 nmol/g w.w. | NO3 (7 d post-sTBI): 153.62 ± 26.24 nmol/g w.w. | UDP (7 d post-sTBI): 38.59 ± 5.43 nmol/g w.w. | UDP-Gal (7 d post-sTBI): 130.20 ± 8.95 nmol/g w.w. | UDP-GalNac (7 d post-sTBI): 15.85 ± 4.54 nmol/g w.w.
